Test results from patent publication US10155021B2, “Antimicrobial 4-oxoquinolizines” (Emergent Product Development Gaithersburg Inc., priority 2011, dated 2018).
Values after ≈ are worked out from the molar mass of the structure shown. Where two headings read alike, the source gives them in different places.

Assays:
S. aureus 101 = assay: MIC, standard panel of Gram-positive and Gram-negative bacteria (CLSI); assay type: cell-based, Staphylococcus aureus; details: Staphylococcus aureus, 101; CAMHB; read-out: MIC S. aureus 101
S. pneumoniae 1027 = assay: MIC, panel of quinolone-resistant strains (CLSI); assay type: cell-based; details: Streptococcus pneumoniae, LEV R
B. abortus = assay: microbe, parasite or virus in culture; assay type: cell-based; details: Brucella abortus, read-out: MIC B. abortus
P. aeruginosa 27853 = assay: MIC, standard panel of Gram-positive and Gram-negative bacteria (CLSI); assay type: cell-based, Pseudomonas aeruginosa; details: Pseudomonas aeruginosa, 27853; CAMHB; read-out: MIC P. aeruginosa 27853
A. baumannii J2 [1] = assay: Preliminary MBC without and with sub-inhibitory polymyxin B (Example 4); assay type: cell-based, Acinetobacter baumannii; details: A. baumannii J2; +[…] polymyxin B; 2nd experiment; preliminary MBC
Pseudomonas ssp PER-1 = assay: MIC, panel of quinolone-resistant strains (CLSI); assay type: cell-based, Pseudomonas spp; details: PER1, CIP R, ESBL
P. aeruginosa 143-3-03 = assay: MIC, panel of quinolone-resistant strains (CLSI); assay type: cell-based; details: Pseudomonas aeruginosa, 143303; CIP I, POL R
B. anthracis = assay: microbe, parasite or virus in culture; assay type: cell-based; details: Bacillus anthracis, read-out: MIC B. anthracis
E. faecium 19434 = assay: MIC, standard panel of Gram-positive and Gram-negative bacteria (CLSI); assay type: cell-based, Enterococcus faecium; details: Enterococcus faecium, 19434; CAMHB; read-out: MIC E. faecium 19434
E. coli 2906 = assay: MIC, panel of quinolone-resistant strains (CLSI); assay type: cell-based; details: Escherichia coli, CIP R
[2] = tested on: resistant strains of A. baumannii and one strain of Acinetobacter sp.; assay: MIC without and with sub-inhibitory polymyxin B, whole panel / MIC ranges (Example 4; also strains not listed separately); assay type: cell-based; details: Acinetobacter baumannii, 1st experiment
P. aeruginosa 1388-3-02 = assay: MIC, panel of quinolone-resistant strains (CLSI); assay type: cell-based; details: Pseudomonas aeruginosa, 1388302; CIP R, POL R
Klebsiella ssp KPC-3 = assay: MIC, panel of quinolone-resistant strains (CLSI); assay type: cell-based, Klebsiella spp; details: KPC3, CIP R, ESBL
[3] = tested on: Acinetobacter spp. H064200250; assay: MIC determination for Acinetobacter strains (Example 3); assay type: cell-based, Acinetobacter sp.; details: LEV R, CIP R, MRP R, IMP I
B. thailandensis = assay: microbe, parasite or virus in culture; assay type: cell-based, Burkholderia thailandensis
[4] = tested on: Acinetobacter sp. (H064200250); assay: MIC without and with sub-inhibitory polymyxin B (Example 4); assay type: cell-based; details: Acinetobacter, without polymyxin B, read-out: MIC without PB
A. baumannii J2 [5] = assay: as above; assay type: cell-based, Acinetobacter baumannii; details: A. baumannii J2; +[…] polymyxin B; 2nd experiment; visual reading
[6] = tested on: Acinetobacter sp. (H064200250); assay: Preliminary MBC without and with sub-inhibitory polymyxin B (Example 4); assay type: cell-based; details: Acinetobacter, without polymyxin B, preliminary MBC, read-out: MBC without PB
Method: The plates were incubated for 18-20 hours at 37° C. The MBC was read as the lowest concentration at which colony growth was ca. 90% less than the positive control (i.e. usually where single colonies or no colonies were observed).

F. tularensis = assay: microbe, parasite or virus in culture; assay type: cell-based; details: Francisella tularensis, read-out: MIC F. tularensis
B. pseudomallei = assay: microbe, parasite or virus in culture; assay type: cell-based; details: Burkholderia pseudomallei, read-out: MIC B. pseudomallei
E. coli 25922 = assay: MIC, standard panel of Gram-positive and Gram-negative bacteria (CLSI); assay type: cell-based, Escherichia coli; details: Escherichia coli, 25922; CAMHB; read-out: MIC E. coli 25922
E. coli CTX-M-15 = assay: MIC, panel of quinolone-resistant strains (CLSI); assay type: cell-based; details: Escherichia coli, CTXM15; CIP R, ESBL
[7] = Acinetobacter spp. H064200250, 1st experiment

## Cc1c(-c2ccc(CN)cc2)c(F)cn2c(=O)c(C(=O)O)cc(C3CC3)c12 [Compound 6, 8-(4-aminomethyl-phenyl)-1-cyclopropyl-7-fluoro-9-methyl-4-oxo-quinolizine-3-carboxylic acid]
S. aureus 101
  MIC: 2 µg/mL (≈ 5.46 µM)
S. pneumoniae 1027
  MIC: 2 µg/mL (≈ 5.46 µM)
B. abortus
  MIC: 0.5 µg/mL (≈ 1.36 µM)
P. aeruginosa 27853
  MIC: 2 µg/mL (≈ 5.46 µM)
A. baumannii J2 [1]
  MBC +[…] PB: 0.25 µg/mL (≈ 0.682 µM)
Pseudomonas ssp PER-1
  MIC: 16 µg/mL (≈ 43.7 µM)
P. aeruginosa 143-3-03
  MIC: 8 µg/mL (≈ 21.8 µM)
B. anthracis
  MIC: 0.125 µg/mL (≈ 0.341 µM)
E. faecium 19434
  MIC: 4 µg/mL (≈ 10.9 µM)
E. coli 2906
  MIC: 16 µg/mL (≈ 43.7 µM)
[2]; A. baumannii A14, without polymyxin B, read-out: MIC without PB
  MIC: 32 µg/mL (≈ 87.3 µM)
[2]; NCTC13301, A. baumannii NCTC 13301, without polymyxin B, read-out: MIC without PB
  MIC: 32 µg/mL (≈ 87.3 µM)
[2]; read-out: MIC range without PB 01-10-2008 n = 8, without polymyxin B, 8 strains
  MIC: 4 to 32 µg/mL (≈ 10.9 to 87.3 µM)
P. aeruginosa 1388-3-02
  MIC: 32 µg/mL (≈ 87.3 µM)
Klebsiella ssp KPC-3
  MIC: 16 µg/mL (≈ 43.7 µM)
[3]
  MIC: 8 µg/mL (≈ 21.8 µM)
B. thailandensis; Burkholderia thailandensis, read-out: MIC90 B. thailandensis
  MIC90: 0.39 µg/mL (≈ 1.06 µM)
B. thailandensis; pH 7 versus pH 5
  Dilutions improvement shift on B. thailandensis MIC90 (between pH 7 and pH 5): No
[4]; Acinetobacter spp. H064200250 (OXA51), 2nd experiment, visual reading
  MIC: 16 µg/mL (≈ 43.7 µM)
[4]; [7]
  MIC: 8 µg/mL (≈ 21.8 µM)
A. baumannii J2 [5]
  MIC +[…] PB: 0.25 µg/mL (≈ 0.682 µM)
[6]; Acinetobacter spp. H064200250 (OXA51), 2nd experiment
  MBC: > 32 µg/mL
[6]; [7]
  MBC: 8 µg/mL (≈ 21.8 µM)
F. tularensis
  MIC: 0.125 µg/mL (≈ 0.341 µM)
B. pseudomallei
  MIC: 2 µg/mL (≈ 5.46 µM)
E. coli 25922
  MIC: < 0.03 µg/mL
E. coli CTX-M-15
  MIC: 16 µg/mL (≈ 43.7 µM)
